Reference: PubChem BioAssay (NCI)
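Compound exposure: 48 hours, 5 concentrations, 96-well plates. GI50 marks 50% less growth. Definition used: TGI = concentration required for complete inhibition of growth.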

Experiments:
Experiment in all cases: DTP human tumour cell line panel, 48 h
HCC-2998 colon = test system: HCC-2998 colon
SF-268 CNS = test system: SF-268 CNS
RPMI-8226 leukemia = test system: RPMI-8226 leukemia
786-0 renal = test system: 786-0 renal
A549 NSCLC = test system: A549 NSCLC
SW-620 colon = test system: SW-620 colon
HS 578T breast = test system: HS 578T breast
T-47D breast = test system: T-47D breast
SK-MEL-28 melanoma = test system: SK-MEL-28 melanoma
EKVX NSCLC = test system: EKVX NSCLC
LOX IMVI melanoma = test system: LOX IMVI melanoma
CAKI-1 renal = test system: CAKI-1 renal
UACC-62 melanoma = test system: UACC-62 melanoma
K-562 leukemia = test system: K-562 leukemia
SR leukemia = test system: SR leukemia
NCI-H522 lung = test system: NCI-H522 lung
U251 CNS = test system: U251 CNS
SN12C renal = test system: SN12C renal
OVCAR-4 ovarian = test system: OVCAR-4 ovarian
HCT-15 colon = test system: HCT-15 colon
MDA-MB-468 breast = test system: MDA-MB-468 breast
PC-3 prostate = test system: PC-3 prostate
HT29 colon = test system: HT29 colon
MDA-MB-435 = test system: MDA-MB-435
OVCAR-8 ovarian = test system: OVCAR-8 ovarian
COLO 205 colon = test system: COLO 205 colon
NCI/ADR-RES ovarian = test system: NCI/ADR-RES ovarian
A498 renal = test system: A498 renal
RXF 393 renal = test system: RXF 393 renal
NCI-H460 lung = test system: NCI-H460 lung
MALME-3M melanoma = test system: MALME-3M melanoma
SF-539 CNS = test system: SF-539 CNS
HOP-62 NSCLC = test system: HOP-62 NSCLC
NCI-H23 lung = test system: NCI-H23 lung
MCF7 breast = test system: MCF7 breast
NCI-H226 lung = test system: NCI-H226 lung
KM12 colon = test system: KM12 colon
M14 melanoma = test system: M14 melanoma
OVCAR-3 ovarian = test system: OVCAR-3 ovarian
ACHN renal = test system: ACHN renal
DU-145 prostate = test system: DU-145 prostate
OVCAR-5 ovarian = test system: OVCAR-5 ovarian
UACC-257 melanoma = test system: UACC-257 melanoma
SK-OV-3 ovarian = test system: SK-OV-3 ovarian
HL-60(TB) leukemia = test system: HL-60(TB) leukemia
TK-10 renal = test system: TK-10 renal
CCRF-CEM leukemia = test system: CCRF-CEM leukemia
MOLT-4 leukemia = test system: MOLT-4 leukemia
SF-295 CNS = test system: SF-295 CNS
IGROV1 ovarian = test system: IGROV1 ovarian
HCT-116 colon = test system: HCT-116 colon
SNB-19 CNS = test system: SNB-19 CNS
BT-549 breast = test system: BT-549 breast
SK-MEL-5 melanoma = test system: SK-MEL-5 melanoma
HOP-92 NSCLC = test system: HOP-92 NSCLC

Q: For `O=C(Nc1nc2ccc([N+](=O)[O-])cc2s1)Nc1cc(Cl)ccc1I`, which GI50 (HCC-2998 colon) is on record?
A: The GI50 was 4.7 µM.

Q: And the TGI (HCC-2998 colon)?
A: Its TGI is 16.2 µM.

Q: And the GI50 (SF-268 CNS)?
A: The GI50 was 9.35 µM.

Q: What about the TGI (SF-268 CNS) of the same molecule?
A: Its TGI is 23.9 µM.

Q: What about the GI50 (RPMI-8226 leukemia) of the same molecule?
A: Its GI50 is 2.24 µM.

Q: What about the TGI (RPMI-8226 leukemia) of the same molecule?
A: Its TGI is 5.66 µM.

Q: And the GI50 (786-0 renal)?
A: The GI50 was 7.32 µM.

Q: And the TGI (786-0 renal)?
A: Its TGI is 20.2 µM.

Q: What about the GI50 (A549 NSCLC) of the same molecule?
A: The GI50 was 9.8 µM.

Q: And the TGI (A549 NSCLC)?
A: The TGI was 21.6 µM.

Q: What about the GI50 (SW-620 colon) of the same molecule?
A: Its GI50 is 5.46 µM.

Q: And the TGI (SW-620 colon)?
A: The TGI was 18.6 µM.

Q: And the GI50 (HS 578T breast)?
A: Its GI50 is 4.71 µM.

Q: What about the TGI (HS 578T breast) of the same molecule?
A: The TGI was 20.8 µM.

Q: What about the GI50 (T-47D breast) of the same molecule?
A: The GI50 was 3.7 µM.

Q: What about the TGI (T-47D breast) of the same molecule?
A: The TGI was 14.5 µM.

Q: And the GI50 (SK-MEL-28 melanoma)?
A: The GI50 was 4.75 µM.

Q: And the TGI (SK-MEL-28 melanoma)?
A: The TGI was 16.6 µM.

Q: What about the GI50 (EKVX NSCLC) of the same molecule?
A: Its GI50 is 3.6 µM.

Q: And the TGI (EKVX NSCLC)?
A: The TGI was 13.6 µM.

Q: And the GI50 (LOX IMVI melanoma)?
A: The GI50 was 5.85 µM.

Q: And the TGI (LOX IMVI melanoma)?
A: The TGI was 18.1 µM.

Q: And the GI50 (CAKI-1 renal)?
A: The GI50 was 5.87 µM.

Q: What about the TGI (CAKI-1 renal) of the same molecule?
A: Its TGI is 19.3 µM.

Q: And the GI50 (UACC-62 melanoma)?
A: The GI50 was 4.11 µM.

Q: And the TGI (UACC-62 melanoma)?
A: The TGI was 15.4 µM.

Q: What about the GI50 (K-562 leukemia) of the same molecule?
A: The GI50 was 3.55 µM.

Q: And the TGI (K-562 leukemia)?
A: The TGI was 13.6 µM.

Q: And the GI50 (SR leukemia)?
A: Its GI50 is 3.16 µM.

Q: And the TGI (SR leukemia)?
A: The TGI was 12.4 µM.

Q: What about the GI50 (NCI-H522 lung) of the same molecule?
A: The GI50 was 2.95 µM.

Q: What about the TGI (NCI-H522 lung) of the same molecule?
A: Its TGI is 10.6 µM.

Q: What about the GI50 (U251 CNS) of the same molecule?
A: Its GI50 is 5.36 µM.

Q: What about the TGI (U251 CNS) of the same molecule?
A: The TGI was 17.8 µM.

Q: What about the GI50 (SN12C renal) of the same molecule?
A: Its GI50 is 4.06 µM.

Q: What about the TGI (SN12C renal) of the same molecule?
A: The TGI was 15.8 µM.

Q: What about the GI50 (OVCAR-4 ovarian) of the same molecule?
A: The GI50 was 5.28 µM.

Q: What about the TGI (OVCAR-4 ovarian) of the same molecule?
A: The TGI was 19.3 µM.

Q: And the GI50 (HCT-15 colon)?
A: Its GI50 is 4.04 µM.

Q: What about the TGI (HCT-15 colon) of the same molecule?
A: The TGI was 15.6 µM.

Q: And the GI50 (MDA-MB-468 breast)?
A: Its GI50 is 3.54 µM.

Q: And the TGI (MDA-MB-468 breast)?
A: The TGI was 10.6 µM.

Q: What about the GI50 (PC-3 prostate) of the same molecule?
A: The GI50 was 3.78 µM.

Q: And the TGI (PC-3 prostate)?
A: Its TGI is 13.5 µM.

Q: What about the GI50 (HT29 colon) of the same molecule?
A: The GI50 was 11.4 µM.

Q: What about the TGI (HT29 colon) of the same molecule?
A: Its TGI is 24.2 µM.

Q: What about the GI50 (MDA-MB-435) of the same molecule?
A: Its GI50 is 6.4 µM.

Q: And the TGI (MDA-MB-435)?
A: Its TGI is 21 µM.

Q: And the GI50 (OVCAR-8 ovarian)?
A: The GI50 was 12.9 µM.

Q: And the TGI (OVCAR-8 ovarian)?
A: Its TGI is 26.7 µM.

Q: What about the GI50 (COLO 205 colon) of the same molecule?
A: Its GI50 is 10.8 µM.

Q: What about the TGI (COLO 205 colon) of the same molecule?
A: Its TGI is 22.9 µM.

Q: What about the GI50 (NCI/ADR-RES ovarian) of the same molecule?
A: Its GI50 is 4.85 µM.

Q: And the TGI (NCI/ADR-RES ovarian)?
A: The TGI was 18.1 µM.

Q: What about the GI50 (A498 renal) of the same molecule?
A: Its GI50 is 4.25 µM.

Q: What about the TGI (A498 renal) of the same molecule?
A: The TGI was 16.1 µM.

Q: And the GI50 (RXF 393 renal)?
A: Its GI50 is 7.38 µM.

Q: And the TGI (RXF 393 renal)?
A: The TGI was 20.3 µM.

Q: And the GI50 (NCI-H460 lung)?
A: The GI50 was 4.16 µM.

Q: And the TGI (NCI-H460 lung)?
A: Its TGI is 15.7 µM.

Q: And the GI50 (MALME-3M melanoma)?
A: The GI50 was 3.26 µM.

Q: And the TGI (MALME-3M melanoma)?
A: Its TGI is 13.1 µM.

Q: What about the GI50 (SF-539 CNS) of the same molecule?
A: Its GI50 is 5.09 µM.

Q: What about the TGI (SF-539 CNS) of the same molecule?
A: The TGI was 17 µM.

Q: What about the GI50 (HOP-62 NSCLC) of the same molecule?
A: Its GI50 is 9.29 µM.

Q: What about the TGI (HOP-62 NSCLC) of the same molecule?
A: Its TGI is 21.7 µM.

Q: What about the GI50 (NCI-H23 lung) of the same molecule?
A: The GI50 was 2.78 µM.

Q: What about the TGI (NCI-H23 lung) of the same molecule?
A: Its TGI is 8.9 µM.

Q: What about the GI50 (MCF7 breast) of the same molecule?
A: The GI50 was 3.05 µM.

Q: And the TGI (MCF7 breast)?
A: Its TGI is 12.1 µM.

Q: And the GI50 (NCI-H226 lung)?
A: Its GI50 is 7.18 µM.

Q: And the TGI (NCI-H226 lung)?
A: Its TGI is 20.5 µM.

Q: What about the GI50 (KM12 colon) of the same molecule?
A: The GI50 was 5.29 µM.

Q: And the TGI (KM12 colon)?
A: Its TGI is 17.7 µM.

Q: And the GI50 (M14 melanoma)?
A: Its GI50 is 10 µM.

Q: What about the TGI (M14 melanoma) of the same molecule?
A: Its TGI is 22 µM.

Q: What about the GI50 (OVCAR-3 ovarian) of the same molecule?
A: Its GI50 is 4.29 µM.

Q: And the TGI (OVCAR-3 ovarian)?
A: The TGI was 14.8 µM.

Q: And the GI50 (ACHN renal)?
A: Its GI50 is 5.29 µM.

Q: And the TGI (ACHN renal)?
A: Its TGI is 17.4 µM.

Q: And the GI50 (DU-145 prostate)?
A: Its GI50 is 8.17 µM.

Q: And the TGI (DU-145 prostate)?
A: Its TGI is 20.6 µM.

Q: What about the GI50 (OVCAR-5 ovarian) of the same molecule?
A: The GI50 was 11.6 µM.

Q: And the TGI (OVCAR-5 ovarian)?
A: Its TGI is 23.9 µM.

Q: And the GI50 (UACC-257 melanoma)?
A: The GI50 was 6.8 µM.

Q: And the TGI (UACC-257 melanoma)?
A: Its TGI is 19.9 µM.

Q: What about the GI50 (SK-OV-3 ovarian) of the same molecule?
A: The GI50 was 7.84 µM.

Q: What about the TGI (SK-OV-3 ovarian) of the same molecule?
A: Its TGI is 20.4 µM.

Q: And the GI50 (HL-60(TB) leukemia)?
A: Its GI50 is 3.81 µM.

Q: And the TGI (HL-60(TB) leukemia)?
A: Its TGI is 16.8 µM.

Q: And the GI50 (TK-10 renal)?
A: The GI50 was 8.2 µM.

Q: And the TGI (TK-10 renal)?
A: Its TGI is 20.7 µM.

Q: What about the GI50 (CCRF-CEM leukemia) of the same molecule?
A: Its GI50 is 3.4 µM.

Q: What about the TGI (CCRF-CEM leukemia) of the same molecule?
A: The TGI was 12.4 µM.

Q: What about the GI50 (MOLT-4 leukemia) of the same molecule?
A: The GI50 was 3.43 µM.

Q: And the TGI (MOLT-4 leukemia)?
A: The TGI was 12 µM.

Q: And the GI50 (SF-295 CNS)?
A: The GI50 was 5.56 µM.

Q: And the TGI (SF-295 CNS)?
A: Its TGI is 18.6 µM.

Q: And the GI50 (IGROV1 ovarian)?
A: The GI50 was 4.49 µM.

Q: What about the TGI (IGROV1 ovarian) of the same molecule?
A: The TGI was 15.8 µM.

Q: What about the GI50 (HCT-116 colon) of the same molecule?
A: Its GI50 is 3.24 µM.

Q: And the TGI (HCT-116 colon)?
A: The TGI was 12 µM.

Q: What about the GI50 (SNB-19 CNS) of the same molecule?
A: The GI50 was 5.5 µM.

Q: What about the TGI (SNB-19 CNS) of the same molecule?
A: The TGI was 18.1 µM.

Q: What about the GI50 (BT-549 breast) of the same molecule?
A: The GI50 was 3.56 µM.

Q: What about the TGI (BT-549 breast) of the same molecule?
A: The TGI was 14.5 µM.

Q: What about the GI50 (SK-MEL-5 melanoma) of the same molecule?
A: The GI50 was 2.7 µM.

Q: What about the TGI (SK-MEL-5 melanoma) of the same molecule?
A: The TGI was 7.52 µM.

Q: What about the GI50 (HOP-92 NSCLC) of the same molecule?
A: Its GI50 is 2.63 µM.

Q: What about the TGI (HOP-92 NSCLC) of the same molecule?
A: The TGI was 7.46 µM.
